# In patent US11185521B2, “Substituted aromatic compounds and pharmaceutical compositions for the prevention and treatment of osteoporosis” (Liminal BioSciences Inc., priority 2014, dated 2021):
# “Also recorded” adds a separate entry of the source.
# How the values were obtained:
# RAW264.7 cells [1] = assay: IL-12 production in LPS-stimulated RAW264.7 cells (IL-12 ELISA); type: cell-based, murine; details: 100 ng/mL LPS, 21 hours
# Description: RAW264.7 cells were cultured with 100 ng/mL of LPS in presence or absence of compounds for 21 hours in a humidified atmosphere of 95% air-5% carbon dioxide at 37° C. IL-12 concentration in the culture medium was measured using the IL-12 ELISA according to the manufacturer (BD Biosciences) recommendations. […] An in vitro IL-12 production assay was used for screening potential inhibitors of osteoclastogenesis.
# RAW264.7 cells [2] = assay: LPS-induced osteoclastogenesis in RAW264.7 cells, TRAP staining; type: cell-based, murine; details: RAW264.7 cells differentiated with LPS (1 ug/ml), days 3-5 (FIG. 1)
# Source text: RAW264.7 cells are precursors of osteoclasts and can be differentiated by several factors including Receptor activator of NF-κB ligand (RANKL) or Lipopolysaccharide (LPS). Osteoclasts are characterized by high expression or tartrate resistant acid phosphatase (TRACP) and Matrix Metalloproteinase-9 (MMP-9) which can be used as markers for osteoclasts. […] The effect of selected compounds on TRAP (osteoclast marker) and IL-12 was undertaken in RAW264.7 cells, a murine osteoclast precursor cell line, in comparison with capric acid, as a positive control for reduction of osteoclastogenesis (Park et al. (2011) PLOS One Volume 6, Issue 11, 8 pages). RAW264.7 cells were differentiated by the incubation with LPS (1 ug/ml) in presence or not of capric acid or Compound I. On days 3-5, osteoclast formation was evaluated using tartrate-resistant acid phosphatase (TRAP) staining.
# RAW264.7 cells [3] = details: cited from earlier work
# [4] = test system: ovariectomized (OVX) rats; assay: Ovariectomized (OVX) rat model of osteoporosis; type: in vivo, Sprague Dawley rats
# Source text: Although in comparison to humans, the skeletal mass of rats remains stable for a protracted period during their lifespan, rats can be ovariectomized to make them sex-hormone deficient, and to stimulate the accelerated loss of bone that occurs in women following menopause. Ovariectomy induces bone loss in the rat and postmenopausal bone loss share many similar characteristics. These include: increased rate of bone turnover with resorption exceeding formation; an initial rapid phase of bone loss followed by a much slower phase; greater loss of cancellous than cortical bone; decreased intestinal absorption of calcium; some protection against bone loss by obesity; and similar skeletal response to therapy with estrogen, tamoxifen, bisphosphonates, parathyroid hormone, calcitonin and exercise. These wide-ranging similarities are strong evidence that the ovariectomized rat bone loss model is suitable for studying problems that are relevant to postmenopausal bone loss. Sprague Dawley rats (250 g) were ovariectomized (OVX) at day 0. Rats were treated by oral gavage with Compound I (200 mg/kg) from day 14 to day 68. Evaluation of different parameters (body weight, calcium loss, osteoclast markers (RANKL and TRAP mRNA expression), collagen content and histology) was performed at day 68.
# db/db mice = assay: Serum adiponectin level in uninephrectomized diabetic obese (db/db) mice; type: in vivo; details: uninephrectomized db/db mice treated for 113 days (FIG. 9)
# Description: To determine if selected compounds of this invention can affect serum adiponectin level, a model of diabetes type II/obesity was used. Briefly, db/db mice (6 weeks-old were uninephrectomized and treated with Compound XIV for 113 days (structure is shown in Table 1 hereinbefore). Serum adiponectin levels were determined with a mouse adiponectin enzyme-linked immunosorbant assay kit (R&D Systems).
compound,measurement,setting,value
"CCCCCc1cc(CC(=O)[O-])ccc1O.[Na+] [Compound VIII, Sodium Salt of 2-(4-Hydroxy-3-pentylphenyl)acetic Acid]",IL12,RAW264.7 cells [1]; compound concentration 0.50 mM,20 pg/mL
"CCCCCc1cc(O)cc(CC(=O)[O-])c1.[Na+] [Compound VII, Sodium Salt of 3-hydroxy-5-pentylphenylacetic Acid]",IL12,RAW264.7 cells [1]; compound concentration 0.50 mM,16.6 pg/mL
CCCCCCCCCC(=O)O [capric acid],"osteoclast formation, TRAP staining",RAW264.7 cells [2],no TRAP cells are observable
same,IL-12 production,RAW264.7 cells [3]; literature (Wang et al. 2006),increase in IL-12 production; also recorded: increases the production of IL-12
same,phosphatase (TRAP)-positive cells,RAW264.7 cells [3]; literature (Wang et al. 2006),reduction of phosphatase (TRAP)-positive cells
same,LPS-upregulated iNOS mRNA levels and nitric oxide (NO) production,RAW264.7 cells [3]; literature,inhibited them
same,monocyte chemoattractant protein-1 (MCP-1) mRNA expression,RAW264.7 cells [3]; literature,inhibited monocyte chemoattractant protein-1 (MCP-1) mRNA expression
"CCCCCc1cc(F)cc(CC(=O)[O-])c1.[Na+] [Compound X, Sodium Salt of 2-(3-fluoro-5-pentylphenyl)acetic Acid]",IL12,RAW264.7 cells [1]; compound concentration 0.50 mM,80 pg/mL
"CCCCCCc1cccc(CC(=O)[O-])c1.[Na+] [Compound VI, Sodium Salt of 2-(3-Hexylphenyl)acetic Acid]",IL12,RAW264.7 cells [1]; compound concentration 0.25 mM,58.87 pg/mL
"CCCCCc1cccc(CC(=O)[O-])c1F.[Na+] [Compound XI, Sodium Salt of 2-(2-Fluoro-3-pentylphenyl)acetic Acid]",IL12,RAW264.7 cells [1]; compound concentration 0.25 mM,15 pg/mL
"CCC/C=C/c1cccc(CC(=O)[O-])c1.[Na+] [Compound IV, Sodium Salt of E-(3-pent-1-enyl-phenyl)acetic Acid]",IL12,RAW264.7 cells [1]; compound concentration 0.50 mM,19.31 pg/mL
"CCCCCc1cc(CCCCC)c(O)c(CC(=O)[O-])c1.[Na+] [Compound XVI, Sodium Salt of 2-(2-Hydroxy-3,5-dipentylphenyl)acetic Acid]",IL12,RAW264.7 cells [1]; compound concentration 0.005 mM,15 pg/mL
"CCCCCc1cccc(C(F)C(=O)[O-])c1.[Na+] (racemic) [Compound XIII, Sodium Salt of (RS)-2-Fluoro-2-(3-pentylphenyl)acetic Acid]",IL12,RAW264.7 cells [1]; compound concentration 0.25 mM,17.6 pg/mL
"CCCCCc1cc(CC(=O)[O-])ccc1F.[Na+] [Compound XII, Sodium Salt of 2-(4-Fluoro-3-pentylphenyl)acetic Acid]",IL12,RAW264.7 cells [1]; compound concentration 0.50 mM,419.6 pg/mL
"CCCC/C=C/c1cccc(CC(=O)[O-])c1.[Na+] [Compound V, Sodium Salt of 2-(3-(Hex-1-enyl]phenyl)acetic Acid]",IL12,RAW264.7 cells [1]; compound concentration 0.50 mM,52.5 pg/mL
"CCCCCc1cccc(CC(=O)[O-])c1O.[Na+] [Compound IX, Sodium Salt of 2-(2-Hydroxy-3-pentylphenyl)acetic Acid]",IL12,RAW264.7 cells [1]; compound concentration 0.1 mM,12.57 pg/mL
"CCCCc1cccc(CCC(=O)[O-])c1.[Na+] [Compound III, Sodium Salt of 3-(3-butylphenyl)propionic Acid]",IL12,RAW264.7 cells [1]; compound concentration 0.50 mM,62.28 pg/mL
"CCCCCc1cccc(CC(=O)[O-])c1.[Na+] [Compound I, Sodium Salt of (3-pentylphenyl)acetic Acid]","osteoclast formation, TRAP staining",RAW264.7 cells [2],no TRAP cells are observable
same,IL12,RAW264.7 cells [1]; compound concentration 0.50 mM,54.34 pg/mL
same,IL-12 production (in words),"RAW264.7 cells [1]; various concentrations (FIG. 2, Table 2)",strong induction of IL-12 production
same,body weight / ovariectomized-induced obesity,[4]; oral gavage 200 mg/kg day 14 to day 68 (FIG. 3),reduced ovariectomized-induced obesity
same,calcium loss in urine,"[4]; oral gavage 200 mg/kg, day 28 to day 56 (FIG. 4)",reduced significantly the calcium loss
same,acid phosphatase activity in serum,"[4]; oral gavage 200 mg/kg, day 28 to day 56 (FIG. 5)",reduces the acid phosphatase activity
same,ratio of mRNA expression of RANKL/OPG in rat tibia,"[4]; oral gavage 200 mg/kg, day 68 (FIG. 6)",decreased
same,collagen content in the metaphyse of the femur,"[4]; oral gavage 200 mg/kg, day 68 (FIG. 7)",increased the collagen content
same,"bone loss in the metaphysis of the femur, histology","[4]; oral gavage 200 mg/kg, day 68 (FIG. 8)",reduced bone loss
"CCCCCc1cccc(CCC(=O)[O-])c1.[Na+] [Compound II, Sodium Salt of 3-(3-pentylphenyl)propionic Acid]",IL12,RAW264.7 cells [1]; compound concentration 0.50 mM,350.65 pg/mL
"CCCCCc1cc(CCCCC)cc(CCC(=O)[O-])c1.[Na+] [Compound XXIV, Sodium 3-[3,5-Dipentylphenyl]propanoate]",IL12,RAW264.7 cells [1]; compound concentration 0.0025 mM,79.9 pg/mL
"CCCCCc1cc(CCCCC)cc(CC(=O)[O-])c1.[Na+] [Compound XIV, Sodium 2-[3,5-Dipentylphenyl] Acetate]",serum adiponectin level,db/db mice,increased the level of adiponectin to the level of the sham animals
same,melting point,,225 to 230 °C
